Assay results reported in patent publication US6054435A, “6-O-substituted macrolides having antibacterial activity” (priority 1999, dated 2000).
Values after ≈ are worked out from the molar mass of the structure shown.

Assays:
Experiment in all cases: in vitro antibacterial activity (MIC), agar dilution
Assay type in all cases: cell-based
[1] = tested on: Streptococcus pyogenes EES61; settings: organism code LL; BHI agar, 35-37° C., 20 to 24 hours; unit assumed
How it was run: (§1)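 Agar dilution on BHI agar with twelve successive compound dilutions; plates inoculated by Steers replicator with 1:100 culture dilutions (1:10 for slow growers such as Streptococcus). MIC is the lowest concentration giving no growth, slight haze or sparse colonies versus a drug-free control.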

[2] = tested on: Streptococcus pyogenes 930; settings: organism code MM; BHI agar, 35-37° C., 20 to 24 hours; unit assumed
How it was run: as §1

[3] = tested on: Streptococcus Pneumonia 5649; settings: organism code ZZA; BHI agar, 35-37° C., 20 to 24 hours; unit assumed
How it was run: as §1

[4] = tested on: Streptococcus agalactiae CMX 508; settings: organism code KK; BHI agar, 35-37° C., 20 to 24 hours; unit assumed
How it was run: as §1

Escherichia coli SS = settings: organism code RR; BHI agar, 35-37° C., 20 to 24 hours; unit assumed
How it was run: as §1

[5] = tested on: Streptococcus bovis A-5169; settings: organism code JJ; BHI agar, 35-37° C., 20 to 24 hours; unit assumed
How it was run: as §1

[6] = tested on: Staphylococcus aureus ATCC 6538P; settings: organism code AA; BHI agar, 35-37° C., 20 to 24 hours; unit assumed
How it was run: as §1

[7] = tested on: Streptococcus pyogenes PIU 2548; settings: organism code NN; BHI agar, 35-37° C., 20 to 24 hours; unit assumed
How it was run: as §1

Candida albicans CCH 442 = settings: organism code TT; BHI agar, 35-37° C., 20 to 24 hours; unit assumed
How it was run: as §1

[8] = tested on: Nocardia Asteroides ATCC9970; settings: organism code VV; BHI agar, 35-37° C., 20 to 24 hours; unit assumed
How it was run: as §1

[9] = tested on: Streptococcus Pneumonia 5979; settings: organism code ZZ; BHI agar, 35-37° C., 20 to 24 hours; unit assumed
How it was run: as §1

Escherichia coli DC-2 = settings: organism code SS; BHI agar, 35-37° C., 20 to 24 hours; unit assumed
How it was run: as §1

[10] = tested on: Staphylococcus aureus 1775; settings: organism code GG; BHI agar, 35-37° C., 20 to 24 hours; unit assumed
How it was run: as §1

[11] = tested on: Staphylococcus aureus A-5278; settings: organism code CC; BHI agar, 35-37° C., 20 to 24 hours; unit assumed
How it was run: as §1

[12] = tested on: Staphylococcus aureus NCTC10649M; settings: organism code EE; BHI agar, 35-37° C., 20 to 24 hours; unit assumed
How it was run: as §1

Escherichia coli JUHL = settings: organism code QQ; BHI agar, 35-37° C., 20 to 24 hours; unit assumed
How it was run: as §1

[13] = tested on: Streptococcus Pneumonia ATCC6303; settings: organism code XX; BHI agar, 35-37° C., 20 to 24 hours; unit assumed
How it was run: as §1

[14] = tested on: Haemophilis Influenzae DILL AMP R; settings: organism code WW; BHI agar, 35-37° C., 20 to 24 hours; unit assumed
How it was run: as §1

[15] = tested on: Streptococcus Pneumonia GYR 1171; settings: organism code YY; BHI agar, 35-37° C., 20 to 24 hours; unit assumed
How it was run: as §1

[16] = tested on: Staphylococcus aureus CMX 642A; settings: organism code DD; BHI agar, 35-37° C., 20 to 24 hours; unit assumed
How it was run: as §1

[17] = tested on: Mycobacterium smegmatis ATCC 114; settings: organism code UU; BHI agar, 35-37° C., 20 to 24 hours; unit assumed
How it was run: as §1

[18] = tested on: Staphylococcus epidermidis 3519; settings: organism code HH; BHI agar, 35-37° C., 20 to 24 hours; unit assumed
How it was run: as §1

[19] = tested on: Staphylococcus aureus CMX 553; settings: organism code FF; BHI agar, 35-37° C., 20 to 24 hours; unit assumed
How it was run: as §1

[20] = tested on: Micrococcus luteus ATCC 9341; settings: organism code OO; BHI agar, 35-37° C., 20 to 24 hours; unit assumed
How it was run: (§2)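 Agar dilution in BHI agar, twelve successive compound dilutions. Inoculum 1:100, or 1:10 for slow-growing strains (e.g. Streptococcus), replicator-spotted. Read by eye; MIC = lowest concentration with no growth, slight haze or sparsely isolated colonies relative to growth control.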

[21] = tested on: Enterococcus faecium ATCC 8043; settings: organism code II; BHI agar, 35-37° C., 20 to 24 hours; unit assumed
How it was run: as §1

[22] = tested on: Staphylococcus aureus A5177; settings: organism code BB; BHI agar, 35-37° C., 20 to 24 hours; unit assumed
How it was run: as §1

[23] = tested on: Micrococcus luteus ATCC 4698; settings: organism code PP; BHI agar, 35-37° C., 20 to 24 hours; unit assumed
How it was run: as §2

Structure (SMILES)	MIC [1] [µg/mL]	MIC [2] [µg/mL]	MIC [3] [µg/mL]	MIC [4] [µg/mL]	MIC (Escherichia coli SS) [µg/mL]	MIC [5] [µg/mL]	MIC [6] [µg/mL]	MIC [7] [µg/mL]	MIC (Candida albicans CCH 442) [µg/mL]	MIC [8] [µg/mL]	MIC [9] [µg/mL]	MIC (Escherichia coli DC-2) [µg/mL]	MIC [10] [µg/mL]	MIC [11] [µg/mL]	MIC [12] [µg/mL]	MIC (Escherichia coli JUHL) [µg/mL]	MIC [13] [µg/mL]	MIC [14] [µg/mL]	MIC [15] [µg/mL]	MIC [16] [µg/mL]	other results
CC[C@H]1OC(=O)[C@H](C)C(=O)[C@H](C)[C@@H](O[C@@H]2O[C@H](C)C[C@H](N(C)C)[C@H]2O)[C@](C)(OCC#Cc2ccc(-c3cncc(C#N)c3)s2)C[C@@H](C)C(=O)[C@H](C)[C@H]2NC(=O)O[C@@]21C [Example 8]	≤ 0.005	0.2 (≈ 0.244 µM)	≤ 0.004	0.01 (≈ 0.0122 µM)	0.2 (≈ 0.244 µM)	≤ 0.005	0.05 (≈ 0.0609 µM)	0.1 (≈ 0.122 µM)	> 100	0.01 (≈ 0.0122 µM)	0.25 (≈ 0.305 µM)	> 100	> 100	> 100	0.02 (≈ 0.0244 µM)	50 (≈ 60.9 µM)	≤ 0.004	4 (≈ 4.87 µM)	≤ 0.004	0.05 (≈ 0.0609 µM)	MIC [17]: 0.78 µg/mL (≈ 0.95 µM); MIC [18]: 0.05 µg/mL (≈ 0.0609 µM); MIC [19]: 0.02 µg/mL (≈ 0.0244 µM); MIC [20]: ≤ 0.005 µg/mL; MIC [21]: 0.02 µg/mL (≈ 0.0244 µM); MIC [22]: 0.05 µg/mL (≈ 0.0609 µM); MIC [23]: 0.05 µg/mL (≈ 0.0609 µM)
CC[C@H]1OC(=O)[C@H](C)C(=O)[C@H](C)[C@@H](O[C@@H]2O[C@H](C)C[C@H](N(C)C)[C@H]2O)[C@](C)(OCC#Cc2ccc(-c3cnc4ccccc4n3)s2)C[C@@H](C)C(=O)[C@H](C)[C@H]2NC(=O)O[C@@]21C [Example 33]	0.02 (≈ 0.0236 µM)	0.39 (≈ 0.46 µM)	0.25 (≈ 0.295 µM)	0.01 (≈ 0.0118 µM)	0.78 (≈ 0.921 µM)	0.01 (≈ 0.0118 µM)	0.2 (≈ 0.236 µM)	0.2 (≈ 0.236 µM)	> 100	0.1 (≈ 0.118 µM)	0.25 (≈ 0.295 µM)	> 100	50 (≈ 59 µM)	25 (≈ 29.5 µM)	0.39 (≈ 0.46 µM)	> 100	0.03 (≈ 0.0354 µM)	4 (≈ 4.72 µM)	0.03 (≈ 0.0354 µM)	0.2 (≈ 0.236 µM)	MIC [17]: 0.2 µg/mL (≈ 0.236 µM); MIC [18]: 0.2 µg/mL (≈ 0.236 µM); MIC [19]: 0.2 µg/mL (≈ 0.236 µM); MIC [20]: 0.05 µg/mL (≈ 0.059 µM); MIC [21]: 0.05 µg/mL (≈ 0.059 µM); MIC [22]: 0.2 µg/mL (≈ 0.236 µM); MIC [23]: 0.05 µg/mL (≈ 0.059 µM)
CC[C@H]1OC(=O)[C@H](C)C(=O)[C@H](C)[C@@H](O[C@@H]2O[C@H](C)C[C@H](N(C)C)[C@H]2O)[C@](C)(OCC#Cc2ccc(-c3cccc(C(F)(F)F)c3)s2)C[C@@H](C)C(=O)[C@H](C)[C@H]2NC(=O)O[C@@]21C [Example 19]	0.1 (≈ 0.116 µM)	3.1 (≈ 3.59 µM)	1 (≈ 1.16 µM)	0.05 (≈ 0.0579 µM)	3.1 (≈ 3.59 µM)	0.05 (≈ 0.0579 µM)	0.39 (≈ 0.452 µM)	0.39 (≈ 0.452 µM)	> 100	0.39 (≈ 0.452 µM)	4 (≈ 4.63 µM)	> 100	12.5 (≈ 14.5 µM)	25 (≈ 29 µM)	0.39 (≈ 0.452 µM)	> 100	0.125 (≈ 0.145 µM)	4 (≈ 4.63 µM)	0.125 (≈ 0.145 µM)	0.39 (≈ 0.452 µM)	MIC [17]: 0.39 µg/mL (≈ 0.452 µM); MIC [18]: 0.39 µg/mL (≈ 0.452 µM); MIC [19]: 0.39 µg/mL (≈ 0.452 µM); MIC [20]: 0.2 µg/mL (≈ 0.232 µM); MIC [21]: 0.39 µg/mL (≈ 0.452 µM); MIC [22]: 0.39 µg/mL (≈ 0.452 µM); MIC [23]: 0.39 µg/mL (≈ 0.452 µM)
CC[C@H]1OC(=O)[C@H](C)C(=O)[C@H](C)[C@@H](O[C@@H]2O[C@H](C)C[C@H](N(C)C)[C@H]2O)[C@](C)(OCC#Cc2ccc(-c3nccn3C)s2)C[C@@H](C)C(=O)[C@H](C)[C@H]2NC(=O)O[C@@]21C [Example 32]	0.01 (≈ 0.0125 µM)	12.5 (≈ 15.6 µM)	0.25 (≈ 0.313 µM)	0.01 (≈ 0.0125 µM)	0.2 (≈ 0.25 µM)	≤ 0.005	0.05 (≈ 0.0626 µM)	0.39 (≈ 0.488 µM)	> 100	0.01 (≈ 0.0125 µM)	0.25 (≈ 0.313 µM)	> 100	> 100	> 100	0.1 (≈ 0.125 µM)	50 (≈ 62.6 µM)	0.03 (≈ 0.0375 µM)	2 (≈ 2.5 µM)	0.03 (≈ 0.0375 µM)	0.05 (≈ 0.0626 µM)	MIC [17]: 1.56 µg/mL (≈ 1.95 µM); MIC [18]: 0.1 µg/mL (≈ 0.125 µM); MIC [19]: 0.05 µg/mL (≈ 0.0626 µM); MIC [20]: 0.01 µg/mL (≈ 0.0125 µM); MIC [21]: 0.02 µg/mL (≈ 0.025 µM); MIC [22]: 0.05 µg/mL (≈ 0.0626 µM); MIC [23]: 0.05 µg/mL (≈ 0.0626 µM)
